As usually defined, the IC50 is the concentration needed to halve the response being measured.

This assay deals with T1, recombinant human AKR1C3 (Homo sapiens, UniProt P42330).
T1 construct: GST (cleaved yes); made in house; host or cells: E. coli
T1 sequence (P42330 1-323): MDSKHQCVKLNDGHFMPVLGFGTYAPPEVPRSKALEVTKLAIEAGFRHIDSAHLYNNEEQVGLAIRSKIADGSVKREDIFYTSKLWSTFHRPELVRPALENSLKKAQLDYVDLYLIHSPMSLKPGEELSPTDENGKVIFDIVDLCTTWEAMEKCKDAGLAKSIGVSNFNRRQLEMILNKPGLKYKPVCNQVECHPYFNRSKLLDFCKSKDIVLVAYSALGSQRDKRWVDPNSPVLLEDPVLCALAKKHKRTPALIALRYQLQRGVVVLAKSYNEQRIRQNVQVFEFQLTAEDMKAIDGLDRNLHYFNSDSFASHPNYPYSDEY
Nature of the assay: AKR1C3-inhibitory activity assay (generation of Coumberol from Coumberone). It counts as biochemical. As to conditions: Coumberone 0.3 μM, NADPH 10 μM, 22° C., typically 90 min, average or median values. As to the method: The AKR1C3-inhibitory activity of the substances of the present invention was measured in the AKR1C3 assay described in the paragraphs below.
Essentially, the enzyme activity is measured by quantification of the generation of Coumberol from Coumberone (Halim et al. J. AM. CHEM. SOC. 2008, 130:14123-14128 and Yee et al. Proc. Natl. Acad. Sci. USA 2006, 103:13304-13309). In this test, the increase of the highly fluorescent Coumberol by NADPH- (nicotinamide adenine dinucleotide phosphate)-dependent reduction of the non-fluorescent Coumberone by AKR1C3 was determined.
The enzyme used was recombinant human AKR1C3 (Aldo-keto reductase family 1 member C3; GenBank Accession No. NM_003739). This was expressed in E. coli as GST (glutathione S transferase) fusion protein and purified by glutathione Sepharose affinity chromatography. The GST was removed by digestion with thrombin and subsequent size exclusion chromatography (Dufort, I., Rheault, P., Huang, X F., Soucy, P., and Luu-The, V., Endocrinology 140, 568-574 (1999)).
For the assay, 50 nl of a 100-fold concentrated solution of the test substance in DMSO were pipetted into a black low-volume 384-well microtiter plate (Greiner Bio-One, Frickenhausen, Germany), 2.5 μl of a solution of AKR1C3 in assay buffer [50 mM potassium phosphate buffer pH 7, 1 mM DTT, 0.0022% (w/v) Pluronic F-127, 0.01% BSA (w/v) and protease inhibitor cocktail (Complete, EDTA-free Protease Inhibitor Cocktail from Roche)] were added and the mixture was incubated for 15 min to allow pre-binding of the substances to the enzyme prior to the enzyme reaction. The enzyme reaction was then started by addition of 2.5 μl of a solution of NADPH (20 μM→final concentration in 5 μl of assay volume is 10 μM) and Coumberone (0.6 μM→final concentration in 5 μl of assay volume is 0.3 μM) in assay buffer, and the resulting mixture was incubated at 22° C. for the reaction time of typically 90 min. The concentration of the AKR1C3 and the reaction time was adapted to the respective activity of the enzyme preparation and adjusted such that the assay was carried out in the linear range. Typical AKR1C3 concentrations were in the region of 1 nM. The reaction was stopped by addition of 2.5 μl of a stop solution consisting of 3 μM EM-1404 as inhibitor (U.S. Pat. No. 6,541,463) in 50 mM HEPES pH7.5 (3 μM EM-1404→final concentration in 7.5 μl of assay volume is 1 μM). The fluorescence of the Coumberole was then measured at 520 nm (excitation at 380 nm) using a suitable measuring instrument (Pherastar from BMG Labtechnologies). The intensity of the fluorescence was used as a measure of the amount of Coumberole formed and thus of the enzyme activity of AKR1C3. The data were normalized (enzyme reaction without inhibitor=0% inhibition; all other assay components, but no enzyme=100% inhibition).
As to `C[C@@H]1CN(S(=O)(=O)c2cccc(C#N)c2)C[C@H](C)N1C(=O)c1c[nH]nn1` [Example 54, 3-{[(3R,5S)-3,5-dimethyl-4-(1H-1,2,3-triazol-4-ylcarbonyl)piperazin-1-yl]sulfonyl}benzonitrile], the IC50 was 118 nM. As to `CC1(C)CN(C(=O)c2cnn[nH]2)CCN1S(=O)(=O)c1c(Cl)cc(Cl)cc1Cl` [Example 123, {3,3-dimethyl-4-[(2,4,6-trichlorophenyl)sulfonyl]piperazin-1-yl}(1H-1,2,3-triazol-5-yl)methanone], the IC50 is 12 nM. The result for `CC1(C)CN(C(=O)c2cnn[nH]2)CCN1S(=O)(=O)c1cc(F)c(F)cc1F` [Example 128, {3,3-dimethyl-4-[(2,4,5-trifluorophenyl)sulfonyl]piperazin-1-yl}(1H-1,2,3-triazol-5-yl)methanone] reads 18 nM. Turning to `CC1(C)CN(C(=O)c2cnn[nH]2)CCN1S(=O)(=O)c1ccc(C#N)cc1` [Example 120, 4-{[2,2-dimethyl-4-(1H-1,2,3-triazol-5-ylcarbonyl)piperazin-1-yl]sulfonyl}benzonitrile], the IC50 turned out to be 263 nM. For `C[C@@H]1CN(C(=O)c2cnn[nH]2)[C@@H](C)CN1S(=O)(=O)c1cccc(Cl)c1` [Example 74, {(2S,5R)-4-[(3-chlorophenyl)sulfonyl]-2,5-dimethylpiperazin-1-yl}(1H-1,2,3-triazol-5-yl)methanone], the IC50 stood at 1 nM. For `CC1(C)CN(C(=O)c2cnn[nH]2)CCN1S(=O)(=O)c1ccc(F)cc1` [Example 30, {4-[(4-fluorophenyl)sulfonyl]-3,3-dimethylpiperazin-1-yl}(1H-1,2,3-triazol-5-yl)methanone], the IC50 is 71 nM. With `CC1(C)CN(C(=O)c2cnn[nH]2)CCN1S(=O)(=O)c1ccc(Cl)c(Cl)c1` [Example 116, {4-[(3,4-dichlorophenyl)sulfonyl]-3,3-dimethylpiperazin-1-yl}(1H-1,2,3-triazol-5-yl)methanone], the IC50 was determined as 2 nM. On to `CC1(C)CN(C(=O)c2cnn[nH]2)CCN1S(=O)(=O)c1ccc(F)c(F)c1F` [Example 126, {3,3-dimethyl-4-[(2,3,4-trifluorophenyl)sulfonyl]piperazin-1-yl}(1H-1,2,3-triazol-5-yl)methanone], for which the IC50 amounted to 46 nM.

Take `C[C@@H]1CN(S(=O)(=O)c2ccccc2C(F)(F)F)C[C@H](C)N1C(=O)c1c[nH]nn1` [Example 47, [(2R,6S)-2,6-dimethyl-4-{[2-(trifluoromethyl)phenyl]sulfonyl}piperazin-1-yl](1H-1,2,3-triazol-4-yl)methanone]: the IC50 was determined as 2 nM. With `C[C@@H]1CN(C(=O)c2cnn[nH]2)[C@@H](C)CN1S(=O)(=O)Cc1c(F)cccc1F` [Example 88, {(2S,5R)-4-[(2,6-difluorobenzyl)sulfonyl]-2,5-dimethylpiperazin-1-yl}(1H-1,2,3-triazol-5-yl)methanone], the IC50 turned out to be 79 nM. For `Cc1ccc(C)c(S(=O)(=O)N2C[C@@H](C)N(C(=O)c3cnn[nH]3)[C@@H](C)C2)c1` [Example 99, {(2R,6S)-4-[(2,5-dimethylphenyl)sulfonyl]-2,6-dimethylpiperazin-1-yl}(1H-1,2,3-triazol-5-yl)methanone], the IC50 is 3 nM.

For the molecule `C[C@@H]1CN(S(=O)(=O)c2cccc(Cl)c2)C[C@H](C)N1C(=O)c1c[nH]nn1` [Example 48, {(2R,6S)-4-[(3-chlorophenyl)sulfonyl]-2,6-dimethylpiperazin-1-yl}(1H-1,2,3-triazol-4-yl)methanone], the IC50 was 3 nM.

Consider `CC(=O)Nc1cccc(S(=O)(=O)N2C[C@H](C)N(C(=O)c3cnn[nH]3)C[C@H]2C)c1` [Example 80, N-(3-{[(2R,5S)-2,5-dimethyl-4-(1H-1,2,3-triazol-5-ylcarbonyl)piperazin-1-yl]sulfonyl}phenyl)acetamide], for which the IC50 was 104 nM. Turning to `CC1(C)CN(C(=O)c2cnn[nH]2)CCN1S(=O)(=O)c1ccc(Cl)cc1` [Example 110, {4-[(4-chlorophenyl)sulfonyl]-3,3-dimethylpiperazin-1-yl}(1H-1,2,3-triazol-5-yl)methanone], the IC50 amounted to 5 nM. Consider `C[C@@H]1CN(S(=O)(=O)c2cc(F)cc(F)c2)C[C@H](C)N1C(=O)c1c[nH]nn1` [Example 56, {(2R,6S)-4-[(3,5-difluorophenyl)sulfonyl]-2,6-dimethylpiperazin-1-yl}(1H-1,2,3-triazol-4-yl)methanone], for which the IC50 stood at 13 nM. On to `Cc1ccccc1S(=O)(=O)N1C[C@H](C)N(C(=O)c2cnn[nH]2)C[C@H]1C` [Example 69, {(2S,5R)-2,5-dimethyl-4-[(2-methylphenyl)sulfonyl]piperazin-1-yl}(1H-1,2,3-triazol-5-yl)methanone], for which the IC50 came out at 1 nM.

In the case of `C[C@@H]1CN(S(=O)(=O)c2cccc(Br)c2)C[C@H](C)N1C(=O)c1c[nH]nn1` [Example 50, {(2R,6S)-4-[(3-bromophenyl)sulfonyl]-2,6-dimethylpiperazin-1-yl}(1H-1,2,3-triazol-4-yl)methanone], the IC50 was 3 nM. On to `C[C@@H]1CN(S(=O)(=O)c2cc(Cl)ccc2Cl)C[C@H](C)N1C(=O)c1c[nH]nn1` [Example 43, {(2R,6S)-4-[(2,5-dichlorophenyl)sulfonyl]-2,6-dimethylpiperazin-1-yl}(1H-1,2,3-triazol-4-yl)methanone], for which the IC50 worked out at 2 nM.

Take `COc1ccccc1S(=O)(=O)N1C[C@H](C)N(C(=O)c2cnn[nH]2)C[C@H]1C` [Example 16, {(2S,5R)-4-[(2-methoxyphenyl)sulfonyl]-2,5-dimethylpiperazin-1-yl}(1H-1,2,3-triazol-5-yl)methanone]: the IC50 came out at 4 nM. The result for `C[C@@H]1CN(S(=O)(=O)c2ccccc2F)C[C@H](C)N1C(=O)c1c[nH]nn1` [Example 51, {(2R,6S)-4-[(2-fluorophenyl)sulfonyl]-2,6-dimethylpiperazin-1-yl}(1H-1,2,3-triazol-4-yl)methanone] reads 6 nM. As to `C[C@@H]1CN(C(=O)c2cnn[nH]2)C[C@H](C)N1S(=O)(=O)c1cc(F)cc(F)c1` [Example 42, {(3R,5S)-4-[(3,5-difluorophenyl)sulfonyl]-3,5-dimethylpiperazin-1-yl}(1H-1,2,3-triazol-5-yl)methanone], the IC50 was 9 nM. Take `C[C@@H]1CN(C(=O)c2cnn[nH]2)[C@@H](C)CN1S(=O)(=O)c1ccccc1-c1ccccc1` [Example 86, [(2S,5R)-4-(biphenyl-2-ylsulfonyl)-2,5-dimethylpiperazin-1-yl](1H-1,2,3-triazol-5-yl)methanone]: the IC50 came to 32 nM.

With `C[C@@H]1CN(S(=O)(=O)c2ccccc2C#N)[C@@H](C)CN1C(=O)c1cnn[nH]1` (stereo in doubt) [Example 14, 2-{[(2S,5R)-2,5-dimethyl-4-(1H-1,2,3-triazol-5-ylcarbonyl)piperazin-1-yl]sulfonyl}benzonitrile], the concentration for half-maximal inhibition (IC50) is 439 nM. In the case of `C[C@@H]1CN(S(=O)(=O)c2ccc(Cl)cc2)C[C@H](C)N1C(=O)c1cnn[nH]1` [Example 95, {(2R,6S)-4-[(4-chlorophenyl)sulfonyl]-2,6-dimethylpiperazin-1-yl}(1H-1,2,3-triazol-5-yl)methanone], the IC50 is 20 nM. In the case of `C[C@@H]1CN(C(=O)c2cnn[nH]2)[C@@H](C)CN1S(=O)(=O)c1cccc(Br)c1` [Example 78, {(2S,5R)-4-[(3-bromophenyl)sulfonyl]-2,5-dimethylpiperazin-1-yl}(1H-1,2,3-triazol-5-yl)methanone], the IC50 is 1 nM.

As to `CC1(C)CN(C(=O)c2c[nH]nn2)CCN1S(=O)(=O)c1cccc(Br)c1` [Example 23, {4-[(3-bromophenyl)sulfonyl]-3,3-dimethylpiperazin-1-yl}(1H-1,2,3-triazol-4-yl)methanone], the IC50 stood at 2 nM.

The values are drawn from patent publication US20200079758A1, “[4-(PHENYLSULFONYL)PIPERAZIN-1-YL](1H-1,2,3-TRIAZOL-4-YL)METHANONES” (priority 2016, published 2020).
